According to PubChem BioAssay AID1963843 (Molecular Pharmacology Branch, DTP, NCI, 2024):

Tested on: 616215-338-R-J1-PDC complex spheroid viability
Assay: Anticancer human tumor 616215-338-R-J1-PDC patient-derived colon adenocarcinoma cell line growth inhibition [POLQ]
Settings: for IC50: curve of first compound; for viability, T/C: stronger effect = lower value
How it was run: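 Patient-derived tumour cells were co-cultured with HUVEC and mesenchymal stem cells as multicellular spheroids at 37 °C. They were treated with POLQ inhibitors (novobiocin, ART-558, RP6685) alone or combined with other agents. Top concentrations were at or near clinical Cmax (otherwise 10 microM; SN-38 at 1 microM), decreasing in half-log steps.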
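Note: spheroids exposed to compounds for one week before readout.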
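Throughout, for viability, T/C: percent viability relative to DMSO vehicle wells taken as 100%.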

COc1ccc([C@@H](O)c2cc(-c3ncnc4cc(N5CCOCC5)ccc34)c(F)cc2Cl)nn1 + Nc1ccc(C#CCN(C(=O)Cc2ncc(C(F)(F)F)cc2C(F)(F)F)c2ccc(F)cc2)nn1
IC50 (second compound 0.0316 µM): > 10 µM | IC50 (second compound 0.1 µM): 9.54 µM | IC50 (second compound 0.316 µM): > 10 µM | IC50 (second compound 1 µM): > 10 µM | IC50 (second compound 3.16 µM): > 10 µM | IC50 (second compound 10 µM): 4.73 µM | viability, T/C (second compound 0.0316 µM, first compound 0.0316 µM): 90.8% | viability, T/C (second compound 0.0316 µM, first compound 0.1 µM): 106% | viability, T/C (second compound 0.0316 µM, first compound 0.316 µM): 96% | viability, T/C (second compound 0.0316 µM, first compound 1 µM): 93% | viability, T/C (second compound 0.0316 µM, first compound 3.16 µM): 95.8% | viability, T/C (second compound 0.0316 µM, first compound 10 µM): 61.9% | viability, T/C (second compound 0.1 µM, first compound 0.0316 µM): 90.6% | viability, T/C (second compound 0.1 µM, first compound 0.1 µM): 115% | viability, T/C (second compound 0.1 µM, first compound 0.316 µM): 106% | viability, T/C (second compound 0.1 µM, first compound 1 µM): 94% | viability, T/C (second compound 0.1 µM, first compound 3.16 µM): 92.3% | viability, T/C (second compound 0.1 µM, first compound 10 µM): 47.7% | viability, T/C (second compound 0.316 µM, first compound 0.0316 µM): 97.4% | viability, T/C (second compound 0.316 µM, first compound 0.1 µM): 92.1% | viability, T/C (second compound 0.316 µM, first compound 0.316 µM): 96.9% | viability, T/C (second compound 0.316 µM, first compound 1 µM): 107% | viability, T/C (second compound 0.316 µM, first compound 3.16 µM): 90.3% | viability, T/C (second compound 0.316 µM, first compound 10 µM): 52.7% | viability, T/C (second compound 1 µM, first compound 0.0316 µM): 107% | viability, T/C (second compound 1 µM, first compound 0.1 µM): 118% | viability, T/C (second compound 1 µM, first compound 0.316 µM): 94.5% | viability, T/C (second compound 1 µM, first compound 1 µM): 87.2% | viability, T/C (second compound 1 µM, first compound 3.16 µM): 94.4% | viability, T/C (second compound 1 µM, first compound 10 µM): 49.8% | viability, T/C (second compound 3.16 µM, first compound 0.0316 µM): 113% | viability, T/C (second compound 3.16 µM, first compound 0.1 µM): 109% | viability, T/C (second compound 3.16 µM, first compound 0.316 µM): 93.7% | viability, T/C (second compound 3.16 µM, first compound 1 µM): 85.7% | viability, T/C (second compound 3.16 µM, first compound 3.16 µM): 77.7% | viability, T/C (second compound 3.16 µM, first compound 10 µM): 47.9% | viability, T/C (second compound 10 µM, first compound 0.0316 µM): 103% | viability, T/C (second compound 10 µM, first compound 0.1 µM): 99.9% | viability, T/C (second compound 10 µM, first compound 0.316 µM): 88.7% | viability, T/C (second compound 10 µM, first compound 1 µM): 76.5% | viability, T/C (second compound 10 µM, first compound 3.16 µM): 45.8% | viability, T/C (second compound 10 µM, first compound 10 µM): 50%

CC(=O)O[C@H]1C(=O)[C@@]2(C)[C@H]([C@H](OC(=O)c3ccccc3)[C@]3(O)C[C@H](OC(=O)[C@H](O)[C@@H](NC(=O)c4ccccc4)c4ccccc4)C(C)=C1C3(C)C)[C@]1(OC(C)=O)CO[C@@H]1C[C@@H]2O + Cc1cccc(N(C)C(=O)C2C(O)CCN2c2nc(C)cc(C(F)(F)F)c2C#N)c1
IC50 (second compound 0.0316 µM): < 0.00949 µM | IC50 (second compound 0.1 µM): < 0.00949 µM | IC50 (second compound 0.316 µM): < 0.00949 µM | IC50 (second compound 1 µM): < 0.00949 µM | IC50 (second compound 3.16 µM): < 0.00949 µM | IC50 (second compound 10 µM): < 0.00949 µM | viability, T/C (second compound 0.0316 µM, first compound 0.00949 µM): 34.7% | viability, T/C (second compound 0.0316 µM, first compound 0.03 µM): 20.2% | viability, T/C (second compound 0.0316 µM, first compound 0.0949 µM): 20.4% | viability, T/C (second compound 0.0316 µM, first compound 0.3 µM): 18.9% | viability, T/C (second compound 0.0316 µM, first compound 0.949 µM): 19.3% | viability, T/C (second compound 0.0316 µM, first compound 3 µM): 19.1% | viability, T/C (second compound 0.1 µM, first compound 0.00949 µM): 31.6% | viability, T/C (second compound 0.1 µM, first compound 0.03 µM): 22.5% | viability, T/C (second compound 0.1 µM, first compound 0.0949 µM): 17.3% | viability, T/C (second compound 0.1 µM, first compound 0.3 µM): 21.5% | viability, T/C (second compound 0.1 µM, first compound 0.949 µM): 17.3% | viability, T/C (second compound 0.1 µM, first compound 3 µM): 17.4% | viability, T/C (second compound 0.316 µM, first compound 0.00949 µM): 39.5% | viability, T/C (second compound 0.316 µM, first compound 0.03 µM): 23.8% | viability, T/C (second compound 0.316 µM, first compound 0.0949 µM): 22.5% | viability, T/C (second compound 0.316 µM, first compound 0.3 µM): 15.8% | viability, T/C (second compound 0.316 µM, first compound 0.949 µM): 17.7% | viability, T/C (second compound 0.316 µM, first compound 3 µM): 16.4% | viability, T/C (second compound 1 µM, first compound 0.00949 µM): 36% | viability, T/C (second compound 1 µM, first compound 0.03 µM): 27.6% | viability, T/C (second compound 1 µM, first compound 0.0949 µM): 22.1% | viability, T/C (second compound 1 µM, first compound 0.3 µM): 13.1% | viability, T/C (second compound 1 µM, first compound 0.949 µM): 19% | viability, T/C (second compound 1 µM, first compound 3 µM): 18.8% | viability, T/C (second compound 3.16 µM, first compound 0.00949 µM): 40.9% | viability, T/C (second compound 3.16 µM, first compound 0.03 µM): 21.6% | viability, T/C (second compound 3.16 µM, first compound 0.0949 µM): 23.9% | viability, T/C (second compound 3.16 µM, first compound 0.3 µM): 15.6% | viability, T/C (second compound 3.16 µM, first compound 0.949 µM): 21.7% | viability, T/C (second compound 3.16 µM, first compound 3 µM): 17.4% | viability, T/C (second compound 10 µM, first compound 0.00949 µM): 33.5% | viability, T/C (second compound 10 µM, first compound 0.03 µM): 26.9% | viability, T/C (second compound 10 µM, first compound 0.0949 µM): 21.2% | viability, T/C (second compound 10 µM, first compound 0.3 µM): 14.6% | viability, T/C (second compound 10 µM, first compound 0.949 µM): 21.6% | viability, T/C (second compound 10 µM, first compound 3 µM): 14.6%
